For one compound, Ki results are on record in paper PMC4533885, “Mouse Mincle: Characterization as a Model for Human Mincle and Evolutionary Implications” (Molecules, 2015).

For the assay, the target named is T1, mouse mincle (CLEC-4E) CRD, biotin-tagged (Mus musculus, UniProt Q9R0Q8).
T1 construct: gene Clec4e; minimal C-terminal carbohydrate-recognition domain (primers encode ACPLNWKHY... to ...PEISPLD) with C-terminal biotinylation tag GLNDIFEAQKIEWHE kept; immobilized on streptavidin wells
T1 sequence (Q9R0Q8 80-214): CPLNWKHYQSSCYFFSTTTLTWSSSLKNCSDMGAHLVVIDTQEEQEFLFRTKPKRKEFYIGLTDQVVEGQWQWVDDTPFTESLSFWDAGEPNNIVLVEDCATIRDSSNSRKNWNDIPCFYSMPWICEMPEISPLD
In words: solid-phase competition with […]-Man-BSA reporter, CRD immobilized on streptavidin wells. The assay is classed as binding.

In the case of `OC[C@H]1O[C@H](O[C@H]2O[C@H](CO)[C@@H](O)[C@H](O)[C@H]2O)[C@H](O)[C@@H](O)[C@@H]1O` [trehalose], the Ki was 540 ± 180 µM.
